Our source for the IC50 values is patent US20170088545A1, “CARBOXAMIDE INHIBITORS” (Norvartis AG, priority 2014, published 2017).

For one test, the target named is Smurf-2 (Homo sapiens, UniProt Q9HAU4). As to the kind of experiment: HECT E3 ligase autoubiquitinylation TR-FRET assay, Smurf-2. It counts as biochemical. Conditions: 45 min incubation, 8-point dose-response. The text has this: (§1) To determine the HECT E3 ligase selectivity of the compounds, a panel of biochemical HECT E3 ligase autoubiquitinylation assays was employed (Smurf-1, Smurf-2, WWP1, WWP2, ITCH, Nedd4, Nedd4L and E6AP). The conjugation of ubiquitin to a protein substrate is a multistep process. In an initial ATP-requiring step, a thioester bond is formed between the carboxyl terminus of ubiquitin and an internal cystein residue of the ubiquitin-activating enzyme (E1). Activated ubiquitin is then transferred to a specific cystein residue of an ubiquitin-conjugating enzyme (E2). E2s donate ubiquitin to a HECT E3 ligase (E3) from which it is transferred to the substrate protein. HECT E3 ligases can auto-ubiquitinylate. This event is detected in the TR-FRET (Time-Resolved Fluorescence Resonance Energy Transfer) assay used in this panel. The reaction mix contains E1, E2, tagged-E3, biotin-conjugated ubiquitin, the compound and ATP in a suitable buffer and is incubated for 45 minutes to allow auto-ubiquitinylation of the E3 ligase. To measure the extent of ubiquitinylated E3 ligase by TR-FRET, the donor fluorophore Europium cryptate (Eu3+ cryptate), conjugated to streptavidin which subsequently binds to biotinylated ubiquitin, and the modified allophycocyanin XL665 (HTRF® primary acceptor fluorophore) coupled to a tag-specific antibody (HA, His or GST), which recognizes the respective E3 ligase fusion proteins, are added after the reaction is complete. When these two fluorophores are brought together by a biomolecular interaction (in this case ubiquitinylation of the E3 ligase), a portion of the energy captured by the Cryptate during excitation is released through fluorescence emission at 620 nm, while the remaining energy is transferred to XL665. This energy is then released by XL665 as specific fluorescence at 665 nm. Light at 665 nm is emitted only through FRET with Europium.
Chain of Smurf-2 (Q9HAU4 whole entry, species assumed): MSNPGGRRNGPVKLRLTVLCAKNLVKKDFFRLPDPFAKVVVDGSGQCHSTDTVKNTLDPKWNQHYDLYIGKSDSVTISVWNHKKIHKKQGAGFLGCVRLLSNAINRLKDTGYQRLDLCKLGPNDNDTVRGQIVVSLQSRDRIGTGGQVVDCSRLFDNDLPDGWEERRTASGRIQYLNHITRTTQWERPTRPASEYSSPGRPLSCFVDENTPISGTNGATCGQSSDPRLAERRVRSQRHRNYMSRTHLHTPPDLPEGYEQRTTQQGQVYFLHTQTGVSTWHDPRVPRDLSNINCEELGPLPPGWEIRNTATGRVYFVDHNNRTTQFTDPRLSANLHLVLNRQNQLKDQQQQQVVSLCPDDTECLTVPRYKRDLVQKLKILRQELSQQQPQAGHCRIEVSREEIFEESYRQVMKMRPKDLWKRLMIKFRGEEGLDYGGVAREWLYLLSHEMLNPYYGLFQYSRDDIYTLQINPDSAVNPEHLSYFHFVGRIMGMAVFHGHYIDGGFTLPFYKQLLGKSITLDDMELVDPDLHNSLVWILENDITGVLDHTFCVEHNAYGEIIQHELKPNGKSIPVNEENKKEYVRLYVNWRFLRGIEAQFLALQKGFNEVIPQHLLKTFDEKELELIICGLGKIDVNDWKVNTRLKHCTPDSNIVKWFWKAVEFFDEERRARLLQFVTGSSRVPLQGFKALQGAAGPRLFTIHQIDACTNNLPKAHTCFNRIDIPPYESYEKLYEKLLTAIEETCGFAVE
(§2) Test and reference compounds are prepared at 180× [final] in 90% DMSO, and diluted 1:3 in 90% DMSO.
(§3) For the biochemical assay panel, 50 nl of the test compounds, reference compounds and buffer/DMSO control are transferred to the respective wells of a 384-well white GREINER “SMALL VOLUME” PS plate. The assay panel is run at room temperature on a Biomek FX liquid handling workstation. To the assay plates containing 50 nl compound or control solutions in 90% DMSO, 4.5 ul of E3 ligase solution were added per well, followed by 4.5 ul of the pre-incubated E1/E2/Ub mix or the pre-diluted ubiquitin (LOW control). Plates are shaken vigorously after each addition. In this assay the compound concentrations range from 3 nM to 10 uM in an 8-point dose-response curve.
(§4) After 45 min of incubation the ubiquitinylation reactions were stopped by adding 4.5 ul 2 mM NEM, immediately followed by 4.5 ul of a detection solution including the XL665-labeled antibody and the streptavidin-coupled europium to give a total volume of 18 ul. After an incubation time of 45 min in the dark, the plates are transferred into the Pherastar fluorescence reader to measure the TR-FRET signal.

Another test concerns the target Smurf-1 (Homo sapiens, UniProt Q9HCE7). As to the kind of experiment: HECT E3 ligase autoubiquitinylation TR-FRET assay, Smurf-1. It counts as biochemical. Conditions: 45 min incubation, 8-point dose-response.
Text: as §1, §2, §3, §4
In general terms: TR-FRET usually uses a lanthanide donor and a delayed reading to cut background.

Chain of Smurf-1 (Q9HCE7 whole entry): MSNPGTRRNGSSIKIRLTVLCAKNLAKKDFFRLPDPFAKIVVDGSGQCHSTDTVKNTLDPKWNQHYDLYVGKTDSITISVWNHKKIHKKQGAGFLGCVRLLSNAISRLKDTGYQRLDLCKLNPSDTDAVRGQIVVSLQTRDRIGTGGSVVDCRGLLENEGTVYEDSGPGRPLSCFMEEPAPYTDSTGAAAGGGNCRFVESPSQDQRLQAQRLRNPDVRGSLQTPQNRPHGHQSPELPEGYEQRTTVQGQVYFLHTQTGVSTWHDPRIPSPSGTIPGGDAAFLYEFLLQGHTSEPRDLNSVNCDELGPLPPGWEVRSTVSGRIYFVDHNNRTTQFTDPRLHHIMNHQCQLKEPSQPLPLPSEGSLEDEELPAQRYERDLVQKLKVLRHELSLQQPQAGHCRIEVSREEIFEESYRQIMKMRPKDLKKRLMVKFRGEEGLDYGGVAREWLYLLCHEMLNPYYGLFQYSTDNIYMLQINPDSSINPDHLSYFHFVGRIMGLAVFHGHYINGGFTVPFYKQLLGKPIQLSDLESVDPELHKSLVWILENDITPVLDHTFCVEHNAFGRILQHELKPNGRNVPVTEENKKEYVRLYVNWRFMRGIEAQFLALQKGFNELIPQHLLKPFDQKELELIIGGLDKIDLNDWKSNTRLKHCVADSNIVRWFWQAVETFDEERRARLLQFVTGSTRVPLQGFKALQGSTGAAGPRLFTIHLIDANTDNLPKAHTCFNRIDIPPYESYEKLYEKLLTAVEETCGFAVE

In general, IC50 refers to the concentration at which inhibition is half-maximal. A higher IC50 goes with lower potency. With `Cc1c(C(=O)Nc2c(C)n(C)n(C3CCCCC3)c2=O)noc1-c1ccc(OC(F)(F)F)cc1Cl` [Example 010, 5-(2-Chloro-4-(trifluoromethoxy)phenyl)-N-(2-cyclohexyl-1,5-dimethyl-3-oxo-2,3-dihydro-1H-pyrazol-4-yl)-4-methylisoxazole-3-carboxamide], the figures for the IC50 against Smurf-2 and on Smurf-1 were 2.74 µM and 22.7 nM, respectively.

Take `Cc1c(NC(=O)c2noc(-c3ccc(Cl)cc3Cl)c2C#N)c(=O)n(-c2ccccc2F)n1C` [Example 042, 4-Cyano-5-(2,4-dichlorophenyl)-N-(2-(2-fluorophenyl)-1,5-dimethyl-3-oxo-2,3-dihydro-1H-pyrazol-4-yl)isoxazole-3-carboxamide]: the IC50 against Smurf-2 came to 19.2 µM; against Smurf-1 it was 450 nM.

On to `COc1ccc(-c2onc(C(=O)Nc3c(C)n(C)n(-c4ccccc4F)c3=O)c2Cl)c(F)c1` [Example 022, 4-Chloro-5-(2-fluoro-4-methoxyphenyl)-N-(2-(2-fluorophenyl)-1,5-dimethyl-3-oxo-2,3-dihydro-1H-pyrazol-4-yl) isoxazole-3-carboxamide], for which the IC50 against Smurf-2 is above 10 µM; at Smurf-1, 1160 nM.

`Cc1c(C(=O)Nc2c(C)n(C)n(C3CCCCC3)c2=O)noc1-c1ccc2occc2c1` [Example 054, 5-(Benzofuran-5-yl)-N-(2-cyclohexyl-1,5-dimethyl-3-oxo-2,3-dihydro-1H-pyrazol-4-yl)-4-methylisoxazole-3-carboxamide]: the figures for the IC50 on Smurf-2 and against Smurf-1 were 5 µM and 10.8 nM, respectively.

As to `CSc1ccc(-c2onc(C(=O)Nc3c(C)n(C)n(-c4ccccc4F)c3=O)c2C)cc1` [Example 011, N-(2-(2-Fluorophenyl)-1,5-dimethyl-3-oxo-2,3-dihydro-1H-pyrazol-4-yl)-4-methyl-5-(4-(methylthio)phenyl) isoxazole-3-carboxamide], the values for the IC50 against Smurf-2 and against Smurf-1 were above 10 µM and 777 nM, respectively.

For the molecule `COc1ccc(-c2onc(C(=O)Nc3c(C)n(C)n(C4CCCCC4)c3=O)c2C)cc1C` [Example 048, N-(2-Cyclohexyl-1,5-dimethyl-3-oxo-2,3-dihydro-1H-pyrazol-4-yl)-5-(4-methoxy-3-methylphenyl)-4-methylisoxazole-3-carboxamide], the IC50 on Smurf-2 worked out at 2.4 µM; on Smurf-1, 7.7 nM.

With `COc1ccccc1-c1onc(C(=O)Nc2c(C)n(C)n(C3CCCCC3)c2=O)c1C` [Example 051, N-(2-Cyclohexyl-1,5-dimethyl-3-oxo-2,3-dihydro-1H-pyrazol-4-yl)-5-(2-methoxyphenyl)-4-methylisoxazole-3-carboxamide], the results for the IC50 against Smurf-2 and at Smurf-1 were above 20.1 µM and 560 nM, respectively.
